The values below come from US9475817B2 (BRISTOL-MYERS SQUIBB COMPANY, priority 2012, dated 2016).

Each structure is given as a SMILES string. pIC50: −log10 of the molar value. Counter-ions that a name gives are not always drawn.

One assay addresses CK1ε (Homo sapiens (Human), UniProt P49674). Description: CK1ε kinase assay (Caliper LabChip, fluoresceinated peptide substrate). It is filed as biochemical. Particulars: 200 pM CK1ε, 50 μM ATP, 1.5 μM peptide substrate, 22 hours room temperature. The procedure:
(§1) CK1ε and CK1δ Kinase Assays
(§2) The kinase assay was performed in V-bottom 384-well plates. […] The reaction was incubated at room temperature for 22 hours and terminated by adding 45 μl of 35 mM EDTA to each sample. […] Compounds were dissolved at 10 mM in dimethylsulfoxide (DMSO) and evaluated at eleven concentrations. IC50 values were derived by non-linear regression analysis.

The target in a further assay is CK1δ (Homo sapiens (Human), UniProt P48730). Description: CK1δ kinase assay (Caliper LabChip, fluoresceinated peptide substrate). It counts as biochemical. Particulars: 200 pM CK1δ, 50 μM ATP, 1.5 μM peptide substrate, 22 hours room temperature. The procedure: as §1, §2
Sequence of CK1δ (P48730 whole entry): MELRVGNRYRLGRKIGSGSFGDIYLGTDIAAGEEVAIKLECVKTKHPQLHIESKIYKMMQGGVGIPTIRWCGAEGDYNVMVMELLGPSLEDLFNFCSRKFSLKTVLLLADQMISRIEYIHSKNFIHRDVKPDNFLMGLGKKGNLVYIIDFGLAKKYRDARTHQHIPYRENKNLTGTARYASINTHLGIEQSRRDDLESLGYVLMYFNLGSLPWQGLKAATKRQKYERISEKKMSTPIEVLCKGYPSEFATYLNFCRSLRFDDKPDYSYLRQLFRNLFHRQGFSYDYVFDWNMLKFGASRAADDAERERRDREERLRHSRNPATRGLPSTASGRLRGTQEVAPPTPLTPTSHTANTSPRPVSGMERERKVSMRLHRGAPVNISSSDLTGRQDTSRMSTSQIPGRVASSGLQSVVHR

Sequence of CK1ε (P49674 whole entry): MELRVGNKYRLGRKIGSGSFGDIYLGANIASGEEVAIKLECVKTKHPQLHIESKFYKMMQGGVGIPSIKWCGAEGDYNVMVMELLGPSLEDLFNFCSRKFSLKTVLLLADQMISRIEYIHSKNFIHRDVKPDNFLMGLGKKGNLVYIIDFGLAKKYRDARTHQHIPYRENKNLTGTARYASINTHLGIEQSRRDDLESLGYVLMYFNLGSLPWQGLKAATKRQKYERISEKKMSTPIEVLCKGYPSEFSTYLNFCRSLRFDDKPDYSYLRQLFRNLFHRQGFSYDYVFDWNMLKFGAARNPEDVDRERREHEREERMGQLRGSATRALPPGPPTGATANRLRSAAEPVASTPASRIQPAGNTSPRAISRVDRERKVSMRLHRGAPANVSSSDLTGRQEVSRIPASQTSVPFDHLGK

The pIC50 is −log10 of the IC50, conventionally taken in molar units. Take `Cn1cc(-c2ccc3nc(NC(=O)c4csc(-c5ccncc5)n4)cn3n2)c(-c2ccc(F)cc2)n1` [Compound 8, N-(6-(3-(4-fluorophenyl)-1-methyl-1H-pyrazol-4-yl)imidazo[1,2-b]pyridazin-2-yl)-2-(pyridin-4-yl)thiazole-4-carboxamide]: the pIC50 on CK1ε was 7.50; against CK1δ it was 8.27.
Taken in the same sequence, the figures for `Cn1nc(-c2ccc(F)cc2)c(-c2ccc3nc(NC(=O)c4cccc(-c5cccnc5)c4)cn3n2)c1C1CCOCC1` [Compound 199, N-(6-(3-(4-Fluorophenyl)-1-methyl-5-(tetrahydro-2H-pyran-4-yl)-1H-pyrazol-4-yl)imidazo[1,2-b]pyridazin-2-yl)-3-(pyridin-3-yl)benzamide] were 8.72 and 9.70.
Take `Cn1cc(-c2ccc3nc(NC(=O)c4ncccc4Cl)cn3n2)c(-c2ccc(F)cc2)n1` [Compound 36, 3-chloro-N-(6-(3-(4-fluorophenyl)-1-methyl-1H-pyrazol-4-yl)imidazo[1,2-b]pyridazin-2-yl)picolinamide]: the values for the pIC50 against CK1ε and on CK1δ were 7.86 and 8.14, respectively.
In the same order, the values of `Cn1cc(-c2ccc3nc(NC(=O)c4ccncc4F)cn3n2)c(-c2ccc(F)cc2)n1` [Compound 35, 3-fluoro-N-(6-(3-(4-fluorophenyl)-1-methyl-1H-pyrazol-4-yl)imidazo[1,2-b]pyridazin-2-yl)isonicotinamide] are 8.04 and 8.55.
In the same order, the values of `Cn1nc(-c2ccc(F)cc2)c(-c2ccc3nc(NC(=O)c4ccnc(F)c4)cn3n2)c1N1CCN(CCCF)CC1` [Compound 119, 2-Fluoro-N-(6-(3-(4-fluorophenyl)-5-(4-(3-fluoropropyl)piperazin-1-yl)-1-methyl-1H-pyrazol-4-yl)imidazo[1,2-b]pyridazin-2-yl)isonicotinamide] are 8.00 and 9.52.
In the same order, the values of `Cc1nc(-c2cccnc2)sc1C(=O)Nc1cn2nc(-c3c(-c4ccc(F)cc4)nn(C)c3C3CCN(CCC(F)(F)F)CC3)ccc2n1` [Compound 177, N-(6-(3-(4-fluorophenyl)-1-methyl-5-(1-(3,3,3-trifluoropropyl)piperidin-4-yl)-1H-pyrazol-4-yl)imidazo[1,2-b]pyridazin-2-yl)-4-methyl-2-(pyridin-3-yl)thiazole-5-carboxamide] are 7.91 and 9.15.
Turning to `Cn1cc(-c2ccc3nc(NC(=O)c4ccncc4)c(-c4ccncc4)n3n2)c(-c2ccc(F)cc2)n1` [Compound 194, N-(6-(3-(4-Fluorophenyl)-1-methyl-1H-pyrazol-4-yl)-3-(pyridin-4-yl)imidazo[1,2-b]pyridazin-2-yl)isonicotinamide, 2 TFA], the values for the pIC50 against CK1ε and on CK1δ were 6.26 and 7.01, respectively.
Consider `Cn1nc(-c2ccc(F)cc2)c(-c2ccc3nc(NC(=O)c4ccnc(N5CCOCC5)c4)cn3n2)c1C1CCNCC1` [Compound 160, N-(6-(3-(4-Fluorophenyl)-1-methyl-5-(piperidin-4-yl)-1H-pyrazol-4-yl)imidazo[1,2-b]pyridazin-2-yl)-2-morpholinoisonicotinamide], for which the pIC50 against CK1ε was 9.00; against CK1δ it was 8.82.
For the compound `Cn1cc(-c2ccc3nc(NC(=O)c4ccc(C#N)nc4)cn3n2)c(-c2ccc(F)cc2)n1` [Compound 53, 6-cyano-N-(6-(3-(4-fluorophenyl)-1-methyl-1H-pyrazol-4-yl)imidazo[1,2-b]pyridazin-2-yl)nicotinamide], the pIC50 on CK1ε is 7.67; against CK1δ it was 8.24.
With `Cn1cc(-c2ccc3nc(NC(=O)c4ccc(CO)cc4F)cn3n2)c(-c2ccc(F)cc2)n1` [Compound 41, 2-fluoro-N-(6-(3-(4-fluorophenyl)-1-methyl-1H-pyrazol-4-yl)imidazo[1,2-b]pyridazin-2-yl)-4-(hydroxymethyl)benzamide], the negative-log IC50 (pIC50) on CK1ε is 7.94; against CK1δ, 8.40.
In the case of `Cc1nc(-c2ccncc2)sc1C(=O)Nc1cn2nc(-c3c(-c4ccc(F)cc4)nn(C)c3C3CCN(CC(N)=O)CC3)ccc2n1` [Compound 184, N-(6-(5-(1-(2-Amino-2-oxoethyl)piperidin-4-yl)-3-(4-fluorophenyl)-1-methyl-1H-pyrazol-4-yl)imidazo[1,2-b]pyridazin-2-yl)-4-methyl-2-(pyridin-4-yl)thiazole-5-carboxamide], the pIC50 is 8.92 at CK1ε and 9.52 on CK1δ.
As to `Cn1nc(-c2ccc(F)cc2)c(-c2ccc3nc(NC(=O)c4ccncc4)cn3n2)c1N1CCN(C(=O)c2ccon2)CC1` [Compound 133, N-(6-(3-(4-Fluorophenyl)-5-(4-(isoxazole-3-carbonyl)piperazin-1-yl)-1-methyl-1H-pyrazol-4-yl)imidazo[1,2-b]pyridazin-2-yl)isonicotinamide], the pIC50 on CK1ε was 8.09; on CK1δ, 9.00.
In the same order, the values of `Cn1nc(-c2ccc(F)cc2)c(-c2ccc3nc(NC(=O)c4ccnc(N5CCOCC5)c4)cn3n2)c1N1CCN(Cc2ccon2)CC1` [Compound 136, N-(6-(3-(4-Fluorophenyl)-5-(4-(isoxazol-3-ylmethyl)piperazin-1-yl)-1-methyl-1H-pyrazol-4-yl)imidazo[1,2-b]pyridazin-2-yl)-2-morpholinoisonicotinamide] are 7.92 and 9.10.
In the same order, the values of `Cn1cc(-c2ccc3nc(NC(=O)c4ccc(-n5cccn5)nc4)cn3n2)c(-c2ccc(F)cc2)n1` [Compound 71, N-(6-(3-(4-fluorophenyl)-1-methyl-1H-pyrazol-4-yl)imidazo[1,2-b]pyridazin-2-yl)-6-(1H-pyrazol-1-yl)nicotinamide] are 7.76 and 8.42.
Taken in the same sequence, the figures for `Cn1cc(-c2ccc3nc(NC(=O)c4cc(C(C)(C)C)ncn4)cn3n2)c(-c2ccc(F)cc2)n1` [Compound 32, 6-(tert-butyl)-N-(6-(3-(4-fluorophenyl)-1-methyl-1H-pyrazol-4-yl)imidazo[1,2-b]pyridazin-2-yl)pyrimidine-4-carboxamide] were 7.01 and 8.00.
With `Cn1cc(-c2ccc3nc(NC(=O)c4ccccc4)c(Cl)n3n2)c(-c2ccc(F)cc2)n1` [Compound 191, N-(3-Chloro-6-(3-(4-fluorophenyl)-1-methyl-1H-pyrazol-4-yl)imidazo[1,2-b]pyridazin-2-yl)benzamide], the negative logarithm of the IC50 (pIC50) at CK1ε was 6.82; against CK1δ, 7.61.
As for `CN(C)c1ccc(C(=O)Nc2cn3nc(-c4cn(C)nc4-c4ccc(F)cc4)ccc3n2)cn1` [Compound 66, 6-(dimethylamino)-N-(6-(3-(4-fluorophenyl)-1-methyl-1H-pyrazol-4-yl)imidazo[1,2-b]pyridazin-2-yl)nicotinamide], the pIC50 was 8.18 on CK1ε and 8.55 against CK1δ.
In the same order, the values of `COCC(=O)N1CCC(c2c(-c3ccc4nc(NC(=O)c5ccnc(F)c5)cn4n3)c(-c3ccc(F)cc3)nn2C)CC1` [Compound 152, 2-fluoro-N-(6-(3-(4-fluorophenyl)-5-(1-(2-methoxyacetyl)piperidin-4-yl)-1-methyl-1H-pyrazol-4-yl)imidazo[1,2-b]pyridazin-2-yl) isonicotinamide] are 8.57 and 9.52.
Take `COc1ncc(C(=O)Nc2cn3nc(-c4cn(C)nc4-c4ccc(F)cc4)ccc3n2)cn1` [Compound 84, N-(6-(3-(4-fluorophenyl)-1-methyl-1H-pyrazol-4-yl)imidazo[1,2-b]pyridazin-2-yl)-2-methoxypyrimidine-5-carboxamide]: the pIC50 against CK1ε is 5.99; against CK1δ it was 6.36.
In the same order, the values of `Cn1cc(-c2ccc3nc(NC(=O)c4ccc(F)cc4)cn3n2)c(-c2ccc(F)cc2)n1` [Compound 62, 4-fluoro-N-(6-(3-(4-fluorophenyl)-1-methyl-1H-pyrazol-4-yl)imidazo[1,2-b]pyridazin-2-yl)benzamide] are 7.55 and 8.14.
Consider `Cn1cc(-c2ccc3nc(NC(=O)c4ccccc4)c(F)n3n2)c(-c2ccc(F)cc2)n1` [Compound 192, N-(3-Fluoro-6-(3-(4-fluorophenyl)-1-methyl-1H-pyrazol-4-yl)imidazo[1,2-b]pyridazin-2-yl)benzamide], for which the negative logarithm of the IC50 (pIC50) at CK1ε is 7.63; against CK1δ, 8.25.
